Data: US20230286927A1, “2-PHENYLBENZOTRIAZOL-5-AMINE DERIVATIVES FOR THE TREATMENT AND PROPHYLAXIS OF HEPATITIS B VIRUS (HBV) INFECTION” (priority 2020, published 2023)

Tests used:
HBsAg = test: PHH natural infection assay, HBsAg (alphalisa); format: cell-based, HBV; details: Hepatitis B virus, Hepatocyte, 72 h, read-out: HBsAg IC50
Method: (§1) Detailed procedures regarding primary human hepatocyte (PHH) HBV natural infection assay are described as below. One tube of frozen PHH (10 million cells) is thawed in 37° C. water bath and then transferred to 20 mL of PHH thawing medium (Sigma, InVitroGRO HT Medium, Cat. S03319) with gently mixing. The cells were then centrifuged at […] for 5 min, the supernatant was discarded and the tube was refilled with 25 mL of PHH plating medium (Sigma, InVitroGRO CP Medium, Cat. S03317). The tube was shaken very gently to re-suspend all cells, and then 50 μl of cells were transferred to each well 384-well collagen I coated plate with appropriate liquid handling equipment, e.g. Integra VIAFLO384 or Agilent Bravo. The cells were then cultured for 24 hours in a cell incubator. For HBV infection, after PHH attachment on the culture plate, the plating medium was removed and replenished with PHH culture medium containing HBV virus. The PHH culture medium was prepared with Dulbecco's Modified Eagle Medium (DMEM)/F12 (1:1 in volume ratio) containing 10% fetal bovine serum (Gibco, Cat. 10099141), 5 ng/mL human epidermal growth factor (Gibco, Cat.PHG031IL), 20 ng/mL dexamethasone (Sigma, Cat.D4902-100 mg), 250 ng/mL human recombinant insulin (Gibco, Cat.41400045) and 100 U/mL penicillin. HBV virus at 200 genome equivalent (GE) per cell with 4% PEG8000 (Sigma, Cat.P1458) containing culture medium were added to the PHH culture medium for infection. The cells were then cultured for 24 hours in cell incubator. Then the cell culture supernatant was removed. The HBV-infected PHH were cultured with sandwich culture method with PHH culture medium containing 1% DMSO and 0.25 mg/mL matrix gel for 72 hours. The supernatant was then refreshed with PHH culture medium containing different concentrations of testing compounds for two times with 72-hour interval. At the end of treatment, the supernatant was collected for viral markers measurements, including HBsAg, HBeAg, HBV DNA and cytotoxicity. HBsAg and HBeAg were detected using alphalisa method using their specific antibodies. For HBV DNA detection, HBV DNA Quantitative Fluorescence Diagnostic Kit (Sansure Biotech Inc.) was used following the manufacture's protocol. Cytotoxicity was determined using Cell Counting Kit-8 (CCK8, Dojindo Molecular Technologies, Inc.).
(§2) The compounds of the present invention were tested for their capacity to inhibit HBsAg and HBeAg as described herein.

HBeAg = test: PHH natural infection assay, HBeAg (alphalisa); format: cell-based, HBV; details: Hepatitis B virus, Hepatocyte, 72 h, read-out: HBeAg IC50
Method: as §1, §2

[1] = Cytotoxicity in PHH natural infection assay (Cell Counting Kit-8); format: cell-based; details: HBV-infected primary human hepatocytes, CCK8
Method: as §1

Row | Compound | IC50 (HBsAg) | IC50 (HBeAg) | CC50 at 144 h [1]
1 | COCCCNc1ccc2nn(-c3ccc(F)cc3)nc2c1 [Example 22, 2-(4-Fluorophenyl)-N-(3-methoxypropyl)benzotriazol-5-amine] | 3.27 µM | 6.4 µM | > 100 µM
2 | O=C(Nc1ccc2nn(-c3ccc(Cl)cc3)nc2c1)C1CCCCC1 [Example 39, N-[2-(4-chlorophenyl)benzotriazol-5-yl]cyclohexanecarboxamide] | 3.91 µM | 2.89 µM | > 100 µM
3 | CN(C)c1ccc2nn(-c3ccc(Cl)cc3)nc2c1 [Example 33, 2-(4-Chlorophenyl)-N,N-dimethyl-benzotriazol-5-amine] | 4 µM | 3.71 µM | > 100 µM
4 | O=C(CCC(F)(F)F)Nc1ccc2nn(-c3ccc(Cl)cc3)nc2c1 [Example 52, N-[2-(4-chlorophenyl)benzotriazol-5-yl]-4,4,4-trifluoro-butanamide] | 2.25 µM | 1.89 µM | > 100 µM
5 | NC(=S)Nc1ccc2nn(-c3ccc(Cl)cc3)nc2c1 [Example 53, [2-(4-Chlorophenyl)benzotriazol-5-yl]thiourea] | 3.37 µM | 2.87 µM | > 100 µM
6 | COCCNc1ccc2nn(-c3ccc(Cl)cc3)nc2c1 [Example 15, 2-(4-Chlorophenyl)-N-(2-methoxyethyl)benzotriazol-5-amine] | 3.71 µM | 2.36 µM | > 100 µM
7 | CC(C)Nc1ccc2nn(-c3ccc(Cl)cc3)nc2c1 [Example 30, 2-(4-Chlorophenyl)-N-isopropyl-benzotriazol-5-amine] | 3.75 µM | 6.61 µM | > 100 µM
8 | COCCNc1ccc2nn(-c3cccc(Cl)c3)nc2c1 [Example 18, 2-(3-Chlorophenyl)-N-(2-methoxyethyl)benzotriazol-5-amine] | 4.5 µM | 6.83 µM | > 100 µM
9 | Fc1ccc(-n2nc3ccc(NC4CCOC4)cc3n2)cc1 (stereo not drawn) [Example 21, 2-(4-Fluorophenyl)-N-tetrahydrofuran-3-yl-benzotriazol-5-amine] | 9.74 µM | 10.6 µM | > 100 µM
10 | Cc1cc(N)cc2nn(-c3ccc(Cl)cc3)nc12 [Example 11, 2-(4-Chlorophenyl)-7-methyl-benzotriazol-5-amine] | 2.66 µM | 3.89 µM | > 100 µM
11 | CCCNc1ccc2nn(-c3ccc(Cl)cc3)nc2c1 [Example 14, 2-(4-Chlorophenyl)-N-propyl-benzotriazol-5-amine] | 2.92 µM | 3.97 µM | > 100 µM
12 | CCN(CC)c1ccc2nn(-c3ccc(Cl)cc3)nc2c1 [Example 34, 2-(4-Chlorophenyl)-N,N-diethyl-benzotriazol-5-amine] | 1.8 µM | 2.5 µM | > 100 µM
13 | FC(F)(F)CNc1ccc2nn(-c3ccc(Cl)cc3)nc2c1 [Example 28, 2-(4-Chlorophenyl)-N-(2,2,2-trifluoroethyl)benzotriazol-5-amine] | 2.14 µM | 2.46 µM | > 100 µM
14 | CC(C)CS(=O)(=O)c1ccc(-n2nc3ccc(N)cc3n2)cc1 [Example 10, 2-(4-Isobutylsulfonylphenyl)benzotriazol-5-amine] | 9.57 µM | 5.56 µM | > 100 µM
15 | O=C(Nc1ccc2nn(-c3ccc(F)cc3)nc2c1)C1CCOCC1 [Example 41, N-[2-(4-fluorophenyl)benzotriazol-5-yl]tetrahydropyran-4-carboxamide] | 2.19 µM | 2.31 µM | > 100 µM
16 | CCNc1ccc2nn(-c3ccc(Cl)cc3)nc2c1 [Example 13, 2-(4-Chlorophenyl)-N-ethyl-benzotriazol-5-amine] | 1.3 µM | 1.6 µM | > 100 µM
17 | COCCNc1ccc2nn(-c3cccc(OC)c3)nc2c1 [Example 17, N-(2-methoxyethyl)-2-(3-methoxyphenyl)benzotriazol-5-amine] | 8.06 µM | 15.4 µM | > 100 µM

Row | Compound | IC50 (HBsAg) | IC50 (HBeAg) | CC50 at 144 h [1]
18 | CCN(C)c1ccc2nn(-c3ccc(Cl)cc3)nc2c1 [Example 36, 2-(4-Chlorophenyl)-N-ethyl-N-methyl-benzotriazol-5-amine] | 4.03 µM | 4.45 µM | > 100 µM
19 | Nc1ccc2nn(-c3ccc(Cl)cc3)nc2c1 [Example 2, 2-(4-Chlorophenyl)benzotriazol-5-amine] | 7.97 µM | 5.29 µM | > 100 µM
20 | O=C(Nc1ccc2nn(-c3ccc(Cl)cc3)nc2c1)C1CCOC1 (stereo not drawn) [Example 48, N-[2-(4-chlorophenyl)benzotriazol-5-yl]tetrahydrofuran-3-carboxamide] | 4.81 µM | 3.12 µM | > 100 µM
21 | O=C(Nc1ccc2nn(-c3ccc(Cl)cc3)nc2c1)C1CCCO1 (stereo not drawn) [Example 50, N-[2-(4-chlorophenyl)benzotriazol-5-yl]tetrahydrofuran-2-carboxamide] | 1.26 µM | 1.37 µM | > 100 µM
22 | Clc1ccc(-n2nc3ccc(NCC4CCC4)cc3n2)cc1 [Example 24, 2-(4-Chlorophenyl)-N-(cyclobutylmethyl)benzotriazol-5-amine] | 7.72 µM | 8.9 µM | > 100 µM
23 | O=C(Nc1ccc2nn(-c3ccc(Cl)cc3)nc2c1)C1CCOCC1 [Example 45, N-[2-(4-chlorophenyl)benzotriazol-5-yl]tetrahydropyran-4-carboxamide] | 3.39 µM | 1.98 µM | > 100 µM
24 | O=C(NC(=S)Nc1ccc2nn(-c3ccc(Cl)cc3)nc2c1)C1CCCC1 [Example 56, N-[[2-(4-chlorophenyl)benzotriazol-5-yl]carbamothioyl]cyclopentanecarboxamide] | 3.45 µM | 7.5 µM | > 100 µM
25 | Clc1ccc(-n2nc3ccc(NCC4CCCO4)cc3n2)cc1 (stereo not drawn) [Example 27, 2-(4-Chlorophenyl)-N-(tetrahydrofuran-2-ylmethyl)benzotriazol-5-amine] | 6.07 µM | 11.7 µM | > 100 µM
26 | Clc1ccc(-n2nc3ccc(Nc4nc(-c5ccccc5)cs4)cc3n2)cc1 [Example 63, N-[2-(4-chlorophenyl)benzotriazol-5-yl]-4-phenyl-thiazol-2-amine] | 1.52 µM | 1.34 µM | > 100 µM
27 | Clc1ccc(-n2nc3ccc(NC4CCC4)cc3n2)cc1 [Example 29, 2-(4-Chlorophenyl)-N-cyclobutyl-benzotriazol-5-amine] | 5.55 µM | 9.23 µM | > 100 µM
28 | Cc1cc2nn(-c3ccc(Cl)cc3)nc2cc1NC(N)=S [Example 60, [2-(4-Chlorophenyl)-6-methyl-benzotriazol-5-yl]thiourea] | 2.28 µM | 2.31 µM | > 100 µM
29 | O=C(Nc1ccc2nn(-c3ccc(Cl)cc3)nc2c1)C1CCCCO1 (stereo not drawn) [Example 46, N-[2-(4-chlorophenyl)benzotriazol-5-yl]tetrahydropyran-2-carboxamide] | 2.68 µM | 1.14 µM | > 100 µM
30 | Nc1ccc2nn(-c3cccc(Cl)c3)nc2c1 [Example 1, 2-(3-Chlorophenyl)benzotriazol-5-amine] | 1.2 µM | 1.8 µM | > 100 µM
31 | Clc1ccc(-n2nc3ccc(NCC4CCOC4)cc3n2)cc1 (stereo not drawn) [Example 23, 2-(4-Chlorophenyl)-N-(tetrahydrofuran-3-ylmethyl)benzotriazol-5-amine] | 4.92 µM | 7.67 µM | > 100 µM
32 | O=C(Nc1ccc2nn(-c3ccc(Cl)cc3)nc2c1)C1CCCC1 [Example 49, N-[2-(4-chlorophenyl)benzotriazol-5-yl]cyclopentanecarboxamide] | 2.84 µM | 1.29 µM | > 100 µM
33 | Fc1ccc(-n2nc3ccc(NCC4CCOC4)cc3n2)cc1 (stereo not drawn) [Example 20, 2-(4-Fluorophenyl)-N-(tetrahydrofuran-3-ylmethyl)benzotriazol-5-amine] | 5.66 µM | 7.3 µM | > 100 µM
34 | Clc1ccc(-n2nc3ccc(NCC4CCCC4)cc3n2)cc1 [Example 26, 2-(4-Chlorophenyl)-N-(cyclopentylmethyl)benzotriazol-5-amine] | 8.79 µM | 3.08 µM | > 100 µM
